Numbers after ± are expanded uncertainties.
What was measured:
[1] = refractive index (Na D-line) (dimensionless); details: 298.15 K; 101.33 kPa; Liquid; Standard Abbe refractometry
[2] = 293.15 K; 101.33 kPa; Liquid; Pycnometric method

Structure (SMILES)	refractive index [1]	mass density [2] [kg/m3]
CCCCCC [hexane]	1.3722 ± 0.0007	659.4 ± 0.6
C1CCCCC1 [cyclohexane]	1.4236 ± 0.0008	778.4 ± 0.8
Cc1ccccc1 [toluene]	1.4941 ± 0.0008	866.2 ± 0.9

The remaining lines, values ahead:

refractive index [1]	mass density [2] [kg/m3]	Structure (SMILES)
1.366 ± 0.0008	740.5 ± 0.8	COC(C)(C)C [2-methoxy-2-methylpropane]
1.3867 ± 0.0008	770.6 ± 0.8	CCC(C)(C)OC [2-methoxy-2-methylbutane]

Reference: the NIST ThermoML archive (doi:10.1021/je0495583)
